Experimental data reported in US6500823B1, “Unsaturated hydroximic acid derivatives as per abstract inhibitors” (N-Gene Research Laboratories, Inc., priority 1998, dated 2002).
Structures can show the parent of a compound that is named as a salt.

Key:
HepG2 cells = experiment: LDH enzyme activity in hypoxia exposed HepG2 cells; type: cell-based; details: Homo sapiens, 30 μg/ml, hypoxia 1% O2 24 hours, Hypoxic control = 100, read-out: Relative LDH content, %
Protocol: HepG2 cell were cultured in DMEM medium supplemented with 10% FCS in 5% CO2 containing air at 37° C. 10^5 cells were plated in the wells of Costar 24-well culture plates in 1 ml medium. On the following day, cells were treated with the test compounds in a concentration of 30 μg/ml, then cells were exposed to hypoxia treatment (1% O2, 5% CO2 in nitrogen gas) for 24 hours. A part of the control cultures were treated with water used as the solvent, and another part of them was not exposed to hypoxia. At the end of the hypoxic treatment, medium was removed and cells were washed twice with cold PBS. Cells lysates were prepared in 0.05% Triton X-100 containing phosphate buffer (0.05 M) and after centrifugation (2 min. […]) the LDH activity of the supernatant was determined on the basis of NADH consumption in the presence of sodium piruvate substrate.
The LDH activity of the cells treated with the test compounds and compared to the activity of the control exposed to hypoxia is shown in Table 6.

[1] = target: T1, poly-ADP-ribose polymerase from rat liver (Rattus norvegicus, UniProt P27008); experiment: In vitro PARP inhibition on isolated enzyme; type: biochemical; details: for IC50: isolated rat liver enzyme, ± SEM from four parallel measurements, read-out: PARP I0.5 mg/l (converted)
T1 construct: We have isolated the poly-ADP-ribose polymerase from rat liver; from tissue; host or cells: rat liver
T1 sequence (P27008 whole entry): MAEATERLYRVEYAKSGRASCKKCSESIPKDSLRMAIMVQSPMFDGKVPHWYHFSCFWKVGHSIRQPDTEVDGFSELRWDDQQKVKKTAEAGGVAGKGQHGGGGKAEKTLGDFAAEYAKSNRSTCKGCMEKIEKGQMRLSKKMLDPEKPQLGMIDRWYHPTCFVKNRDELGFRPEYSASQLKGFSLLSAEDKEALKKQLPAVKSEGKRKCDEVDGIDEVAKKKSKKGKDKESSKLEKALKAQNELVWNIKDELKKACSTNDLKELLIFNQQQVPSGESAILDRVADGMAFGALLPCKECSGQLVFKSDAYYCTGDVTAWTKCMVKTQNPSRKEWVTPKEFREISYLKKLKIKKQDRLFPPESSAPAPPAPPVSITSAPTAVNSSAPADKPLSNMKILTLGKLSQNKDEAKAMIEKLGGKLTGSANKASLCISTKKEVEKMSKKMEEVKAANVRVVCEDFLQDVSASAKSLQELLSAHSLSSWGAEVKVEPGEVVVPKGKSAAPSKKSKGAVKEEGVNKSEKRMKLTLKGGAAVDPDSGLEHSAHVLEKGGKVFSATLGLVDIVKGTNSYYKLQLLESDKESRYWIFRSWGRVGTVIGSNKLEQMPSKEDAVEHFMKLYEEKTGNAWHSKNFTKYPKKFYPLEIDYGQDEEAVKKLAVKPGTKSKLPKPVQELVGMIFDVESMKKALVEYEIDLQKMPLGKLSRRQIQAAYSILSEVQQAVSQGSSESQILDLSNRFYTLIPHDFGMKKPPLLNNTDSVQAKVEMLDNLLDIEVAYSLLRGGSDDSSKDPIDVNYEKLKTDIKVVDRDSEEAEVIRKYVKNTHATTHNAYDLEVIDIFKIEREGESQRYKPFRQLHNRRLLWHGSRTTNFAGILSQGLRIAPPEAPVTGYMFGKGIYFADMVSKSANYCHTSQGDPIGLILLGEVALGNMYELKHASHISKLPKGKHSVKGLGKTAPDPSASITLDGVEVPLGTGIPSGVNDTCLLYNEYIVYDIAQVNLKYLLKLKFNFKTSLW
Protocol: We have isolated the poly-ADP-ribose polymerase from rat liver according to the article Shah.G. M.,Anal Biochem, 227, 1-13 (1995).
We have determined the PARP activation in 130 μl of reaction mixture, which consists of: 100 mM Tris-HCl puffer, pH 8.0, 10 mM MgCl2, 10% glycerol, 1.5 mM DTT, 100 μg of (32P), or (3H), NAD+, 10 μg of histone. We have stopped the reaction after 10 minutes with 8% perchloric acid and seperated the protein through centrifugation (10 minutes, 10.000×g). We have washed the precipitate with 8% perchloric acid, and we measured the radioactivity connected to the protein with scintillation counter.

male SPRD rats = experiment: Reperfusion induced arrhythmia after LAD occlusion, survival rate; type: in vivo, rat; details: for responders at 5 mg/kg: Rattus norvegicus, iv, control 15.38, read-out: % SURV; for effect on survival of reperfusion arrhythmia, in words: compared with Example 2 (100% survival)
Protocol: Experiments were carried out in male SPRD rats (acceptable body weight range: 300-350 g). The animals were anesthetized with sodium pentobarbital (Nembutal®: 60 mg/kg intraperitoneally) and remained breathing spontaneously. The animals were ventilated with respirator (MTA Kutesz) by using trachea cannule which was inserted after tracheotomy. The standard lead of the ECG II is monitored. Right femoral artery was catheterized and connected to a pressure transducer (BPR-01, Experimetria, Hungary), a preamplifier and pulsotachometer (HG-M, Experimetria, Hungary) for arterial blood pressure and heart rate measurement, respectively. The external jugular vein was cannulated for drug administration. After thoracotomy a silk (braided, coated 4-0) was placed under the left anterior coronary (LAD) artery. After a few minutes' stabilization period, a 5 min occlusion of LAD artery was applied, followed by a 10 min reperfusion period. The survival rate was evaluated.

[2] = tested on: mouse HSP-70 gene promoter in mouse fibroblast L929 cells; experiment: HSP-70 promoter-luciferase reporter gene assay; type: cell-based; details: Control = 100; 10 μl of 10^-2 M solution to 1 ml culture, 30 min, 1 hour regeneration
From the text: The activity of HSP-70 was studied by reporter gene assay forming a DNA hybrid. To the promoter sequence of HSP-70 encoding the heat shock protein was fused a gene of a protein that can be detected by a well-measurable enzyme activity. Biotechnological processes were used. As reporter gene luciferase enzyme was employed, the activity of which can be well determined by luminescence measurement. If the promoter of the gene of the luciferase enzyme is substituted by the promoter of the HSP-70 gene, then the change in the activity of the luciferase enzyme i.e. the change of the frequency of the transcription from the gene correlates with the frequency of the transcription of the HSP-70 gene that proceeds in the given circumstances. In this way, if a substance or process influences the expression of the HJSP-70 gene, the effect can be studied through the measurement of the luciferase enzyme activity. The effect of the substances to be tested on the HSP-70 expression was studied in such an experimental system.
A double-stranded DNA circular molecule i.e. a plasmid containing the HSP-70 reporter gene was constructed to perform the measurements. An almost 600 bp long sequence of the mouse HSP-70 gene promoter (5′ direction from the start site of the gene) was fused to the coding sequence of the luciferase gene originated from Photymus pyralis. The applied promoter sequence contained several protein binding sites facilitating the expression of the HSP-70 gene. The HSP promoter-luciferase heterologous gene construct was built in a pBR based plasmid vector that can be selected for neomycin. This HSP-70-luciferase plasmid was transfected into mouse fibroblast L929 cells. The assay was performed as follows.
The HSP-70-luc plasmid containing L929 cells are grown in DMEM (Dulbecco's Modified Eagle's Medium) medium supplemented with 5% FCS (Fetal Calf Serum). 10^4 cells are plated in the wells of a 24-well Costar cell culture plate in 1 ml of culture medium. Test substances are dissolved in PBS (Phosphate Buffered Saline) in 10^−2 M concentration. After attachment of the cells (3-4 hours after plating) 10 μl of the solution are given to the cultures and cells are incubated for 30 min. at 37° C. in a CO2 thermostat. Culture medium is then changed for fresh one (without test substance) and cells are allowed to regenerate for 1 hour at 37° C., then once washed with PBS. After removal of PBS 40 μl of 1× lysis buffer are added to the cells, and the samples are kept on ice for 30 minutes. Then the samples are transferred into Eppendorf vials and centrifuged at 14000 rpm for 20 min at 4° C. 5 μl of the supernatant is added to 25 μl of luciferase assay buffer and the luminescence of the samples is measured for 25 seconds in a luminometer.

[3] = target: Moloney murine leukemia virus reverse transcriptase (Moloney murine leukemia virus, UniProt P03355); experiment: Reverse transcriptase inhibition, (3H)dTTP incorporation; type: biochemical; details: for inhibition at 2 µg/mL: concentration 2 μg/ml
Protocol: The compounds may be sorted into group of the non-nucleoside type reverse transcriptase inhibitors. Tests were performed on Moloney murine leukemia virus reverse transcriptase that is considered as a good model of the HIV reverse transcriptase enzyme. The experimental assembly was the following.
The assay measures the incorporation of (3H)dTTP into cDNA using poly(dA) template and oligo(dT)12-18 primer. The reaction was carried out in 20 μl volume.
The reaction was started by addition of 5U reverse transcriptase
The reaction mixture was incubated for 40 min at 37° C. Then 15 μl of the reaction mixture was loaded on Whatman DE81 filter discs and filters were washed sequentially with 5% disodium hidrogen phosphate buffer, with water and with 96% (v/v) ethanol. After drying, the filters were placed into scintillation cocktail (OptiPhase, HiSafe, Wallac) and the radioactivity was measured in a Packard Tri-Carb 2200 scintillation counter.
Two compounds with known inhibitory activity were used in the experiments as positive control. AZT is a nucleoside analog while the compound Nevirapin is a non-nucleoside type inhibitor. Nevirapine binds to the so called benzodiazepine binding site of the enzyme. The applied concentrations of the test compounds were in the 0.2-2 μg/ml concentration range.

SMILES | IC50 [1] [µM] | activity at 30 µg/mL (HepG2 cells) [%] | responders at 5 mg/kg (male SPRD rats) [%] | other results
OC(CON=C(Cl)C=Cc1ccccc1)CN1CCCC1 (stereo not drawn) [Example 26, N-(3-Pyrrolidino-2-hydroxy-propoxy)-3-phenyl Acrylimidoyl Chloride] |  | 112 |  | 
COc1ccc(C=CC(N)=NOCC(O)CN2CCOCC2)cc1OC (stereo not drawn) [Example 9, O-(3-Morpholino-2-hydroxy-propyl-3,4-dimethoxycinnamic Acid Amidoxime Hydrochloride] | 35.6 |  |  | 
COc1ccc(C=CC(N)=NOCC(O)CN2CCCCC2)cc1OC (stereo not drawn) [Example 18, O-(3-Piperidino-2-hydroxy-propyl)-3,4-dimethoxycinnamic Acid Amidoxime] | 93.8 |  | 67 | effect on survival of reperfusion arrhythmia, in words (male SPRD rats): similarly outstanding effect
OC(CON=C(Cl)C=Cc1cccnc1)CN1CCOCC1 (stereo not drawn) [Example 33, N-(3-Morpholino-2-hydroxy-propoxy)-3-(3-pyridyl)acrylimidoyl Chloride Hydrogen Maleate] | 15.8 |  |  | 
NC(C=Cc1ccccc1)=NOCC(O)CN1CCOCC1 (stereo not drawn) [Example 7, O-(3-Morpholino-2-hydroxy-propyl)-cinnamic Acid Amidoxime] | 22.9 | 141 | 42 | 
NC(C=C1CCCCC1)=NOCC(O)CN1CCCCC1 (stereo not drawn) [Example 19, O-(3-Piperidino-2-hydroxy-propyl)cyclohexyldene Acetamidoxime] | 609 |  |  | PARP inhibitor classification in words ([1]; conclusion on Table 1): very poor PARP inhibitor
NC(C=Cc1cccnc1)=NOCC(O)CN1CCCCC1 (stereo not drawn) [Example 5, O-(3-Piperidino-2-hydroxy-propyl)-3-(3-Pyridyl)acrylic Acid Amidoxime Dihydrochloride] | 58.1 |  | 50 | Activity (HSP-70 promoter luciferase) [2]: 199; inhibition at 1 µg/mL ([3]; concentration 1.0 μg/ml, read-out: Enzyme inhibition, %): 52%; inhibition at 2 µg/mL ([3]; read-out: Enzyme inhibition, %): 57%; reverse transcriptase inhibiting effect compared with Nevirapin and AZT, in words ([3]; dose dependent, lower than AZT): higher than that of Nevirapin
COc1ccc(C=CC(N)=NOCC(O)CN2CCCC2)cc1OC (stereo not drawn) [Example 16, O-(3-Pyrrolidino-2-hydroxy-propyl)-3,4-dimethoxycinnamic Acid Amidoxime Dihydrochloride] | 51.5 | 120 |  | 
Cc1ccnc2c1NC(=O)c1cccnc1N2C1CC1 [Nevirapin, reference compound] |  |  |  | inhibition at 0.2 µg/mL ([3]; concentration 0.2 μg/ml, read-out: Enzyme inhibition, %): 21%; inhibition at 2 µg/mL ([3]; read-out: Enzyme inhibition, %): 26%
CC(C)(C)NCC(O)CON=C(N)C=Cc1cccnc1 (stereo not drawn) [Example 14, O-(3-t.Buthylamino-2-hydroxy-propyl)-3-(3-pyridyl)acrylic Acid Amidoxime Dihydrochloride] | 44.5 |  | 43 | 
COc1ccc(C=CC(N)=NOCC(O)CN2CCc3ccccc3C2)cc1OC (stereo not drawn) [Example 12, O-[3-(1,2,3,4-Tetrahydro-2-isoquinolyl)-2-hydroxy-propyl]-3,4-dimethoxy-cinnamic Acid Amidoxime Dihydrochloride] | 19.4 |  |  | 
COc1ccc(C=CC(N)=NOCC(O)CNC(C)(C)C)cc1OC (stereo not drawn) [Example 8, O-(3-t.Butylamino-2-hydroxy-propyl)-3,4-dimethoxycinnamic Acid Amidoxime Dihydrochloride] | 28.5 | 116 | 37.5 | 
ClC(C=Cc1cccnc1)=NOCCCN1CCCCC1.O=C(O)/C=C\C(=O)O [Example 32, N-(3-Piperidino-propoxy)-3-(3-pyridyl)acrylimidoyl Chloride Hydrogen Maleate] |  |  | 71.4 | effect on survival of reperfusion arrhythmia, in words (male SPRD rats): similarly outstanding effect
NC(C=Cc1ccccc1)=NOCC(O)CN1CCc2ccccc2C1 (stereo not drawn) [Example 11, O-[3-(1,2,3,4-Tetrahydro-2-isoquinolyl)-2-hydroxy-propyl)]cinnamic Acid Amidoxime Dihydrochloride] | 51.2 | 124 | 20 | 

More lines, main results first:

IC50 [1] [µM] | SMILES | activity at 30 µg/mL (HepG2 cells) [%] | responders at 5 mg/kg (male SPRD rats) [%] | other results
51.7 | NC(C=Cc1cccnc1)=NOCC(O)CN1CCCC1 (stereo not drawn) [Example 17, O-(3-Pyrrolidino-2-hydroxy-propyl)-3-(3-pyridyl)acrylic Acid Amidoxime Hydrochloride] | 118 |  | 
65.7 | NC(C=Cc1ccccc1)=NOCC(O)CN1CCCC1 (stereo not drawn) [Example 15, O-3-Pyrrolidino-2-hydroxy-propyl) Cinnamic Acid Amidoxime dihydrochloride] |  |  | Activity (HSP-70 promoter luciferase) [2]: 115
19.2 | CC(C)(C)NCC(O)CON=C(Cl)C=Cc1cccnc1 (stereo not drawn) [Example 31, N-(3-t.Butylamino-2-hydroxy-propoxy)-3-(3 pyridyl)acrylimidoyl Chloride Hydrogen Maleate] |  |  | 
34 | NC(C=Cc1cccnc1)=NOCC(O)CN1CCc2ccccc2C1 (stereo not drawn) [Example 13, O-(3-(1,2,3,4-Tetrahydro-2-isoquinolyl)-2-hydroxy-propyl)-3-(3-pyridyl) Acrylic Acid Amidoxime Dihydrochloride] |  |  | Activity (HSP-70 promoter luciferase) [2]: 156
55.5 | NC(C=Cc1cccnc1)=NOCC(O)CN1CCOCC1 (stereo not drawn) [Example 10, O-(3-Morpholino-2-hydroxy-propyl)-3-(3-pyridyl)-acrylic Acid Amidoxime Hydrochloride] |  |  | 
27.5 | CC(C)(C)NCC(O)CON=C(N)C=Cc1ccccc1 (stereo not drawn) [Example 6, O-(3-t.Buthylamino-2-hydroxy-propyl)-cinnamic Acid Amidoxime] |  |  | Activity (HSP-70 promoter luciferase) [2]: 302
